Results taken from patent publication US10258607B2, “Method of increasing intratumoral pHe and reducing acid-mediated invasion” (H. Lee Moffitt Cancer Center and Research Institute, Inc., priority 2009, dated 2019).
Entries after “also recorded” stand apart in the source; their conditions may differ.

Legend:
[1] = tested on: spontaneous and experimental metastases; conditions: chronic consumption of sodium bicarbonate solution; cited from earlier work
[2] = tested on: widely metastatic renal cancer; assay: Case report: patient with metastatic renal cancer
[3] = 25-50 grams daily, greater than 1 year, patients with renal tubular acidosis and sickle cell anemia; cited from earlier work
[4] = cited from earlier work
[5] = high doses; cited from earlier work
[6] = tested on: luciferase-expressing PC3M prostate cancer cells; assay: In vivo experimental lung metastasis model, IEPA in drinking water; design: species or system mice
Protocol: FIG. 10 illustrates (A) the chemical structure of IEPA and (B) an experimental timetable. For the experiment mice (n=10) were started on 200 mM IEPA, or tap water (n=10) at time 0. Four days later 5×10^6 PC3M cells were injected intravenously in to the mice. Images were acquired weekly, and animal were euthanized at week 6 post-injections
Mice were imaged in a ventral view weekly for 6 weeks using the in vivo Imaging System (IVIS, Xenogen).
A region of interest (ROI) was manually selected over the signal intensity. The area of the ROI was kept constant and the intensity was recorded as maximum [photons/sec].
In these experiments, 10 mice were provided with ad libidum 200 mM of 2-imidazole-1-yl-3-ethoxycarbonylpropionic acid (IEPA) in their drinking water and 10 mice were maintained on water.
Four days after initiation of therapy, all animals were injected with luciferase-expressing PC3M prostate cancer cells. […] NMR in biomedicine 2002; 15(2):114-9; van Sluis R, et al., In vivo imaging of extracellular pH using 1H MRSI. Magn Reson Med 1999; 41(4):743-50].

[7] = self-administered 40 grams of NaHCO3 daily, scans Dec. 5, 2007 and Apr. 18, 2008

For O=C([O-])O.[Na+] [NaHCO3, sodium bicarbonate], the “spontaneous and experimental metastases” value [1] is given as “inhibited”, the tolerability ([2]; "very high" bicarbonate administration for nearly 1 year) is given as “without complication” and the “duration of stable tumor” value ([2]; person, approximately 60 grams of bicarbonate in water daily with vitamins, supplements, no conventional therapy) is given as 10 months. For the same compound, the “central necrosis of tumors on follow-up CT scan” value [2, 7] was “no longer present”, the “liver lesions on CT scans” value [2, 7] was “some of the liver lesions have increased in size, some have decreased in size, and some have remained stable” and the “adverse effects on chronic administration” value [3] was “without adverse affects”.

In the case of NCCCC[C@H](N)C(=O)O [free-base lysine, L-lysine], the pKa1 ([4]; L-lysine with three pKa's) is given as 2.20, the pKa2 ([4]; L-lysine with three pKa's) is given as 8.90 and the pKa3 ([4]; L-lysine with three pKa's) is given as 10.28.

For CCOC(=O)CC(C(=O)O)n1ccnc1 (stereo not drawn) [IEPA, 2-imidazole-1-yl-3-ethoxycarbonylpropionic acid], the toxicity in vivo [5] is listed as “non-toxic at high doses”, the “animal weight / weight gain and grooming behavior vs controls” value ([6]; 200 mM IEPA in drinking water) is listed as “not different from controls” and the “lung metastases compared to control group” value ([6]; 200 mM IEPA in drinking water from 4 days before i.v. injection of 5×10^6 PC3M cells, weekly imaging for 6 weeks, p<0.02) is listed as “significantly fewer lung metastases; also recorded: significantly inhibits lung metastasis”. The “mean in vivo photon count, whole animal and lungs, vs tap water group” value ([6]; 200 mM IEPA in drinking water, p<0.002 Wilcoxon two sample test) was “significantly different”.

In the case of CCN(CC)CCNC(=O)c1c(C)[nH]c(/C=C2\C(=O)Nc3ccc(F)cc32)c1C [Sutent], the tumor response ([2]; first line treatment of liver metastatic disease) is reported as “the tumor progressed”.

In the case of C[N+](C)(C)CCN [cholamine chloride], the pKa [4] is listed as 7.1.
